Laboratory results taken from PubChem BioAssay (NCI).
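These data come from cells grown in 96-well plates and exposed to compound for 48 hours at five concentrations. At the GI50, growth is halved. TGI is the concentration that stops growth completely.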

Key:
Test in all cases: growth of human tumour cells (NCI), 48 h
SK-OV-3 ovarian = system: SK-OV-3 ovarian
UACC-62 melanoma = system: UACC-62 melanoma
786-0 renal = system: 786-0 renal
OVCAR-8 ovarian = system: OVCAR-8 ovarian
MCF7 breast = system: MCF7 breast
K-562 leukemia = system: K-562 leukemia
T-47D breast = system: T-47D breast
DU-145 prostate = system: DU-145 prostate
HCT-116 colon = system: HCT-116 colon
NCI-H460 lung = system: NCI-H460 lung
SK-MEL-5 melanoma = system: SK-MEL-5 melanoma
KM12 colon = system: KM12 colon
MDA-MB-435 = system: MDA-MB-435
HCC-2998 colon = system: HCC-2998 colon
OVCAR-5 ovarian = system: OVCAR-5 ovarian
SW-620 colon = system: SW-620 colon
NCI-H23 lung = system: NCI-H23 lung
NCI/ADR-RES ovarian = system: NCI/ADR-RES ovarian
U251 CNS = system: U251 CNS
CAKI-1 renal = system: CAKI-1 renal
SF-539 CNS = system: SF-539 CNS
SF-295 CNS = system: SF-295 CNS
PC-3 prostate = system: PC-3 prostate
SN12C renal = system: SN12C renal
EKVX NSCLC = system: EKVX NSCLC
SNB-19 CNS = system: SNB-19 CNS
HL-60(TB) leukemia = system: HL-60(TB) leukemia
RXF 393 renal = system: RXF 393 renal
NCI-H522 lung = system: NCI-H522 lung
HOP-62 NSCLC = system: HOP-62 NSCLC
IGROV1 ovarian = system: IGROV1 ovarian
A549 NSCLC = system: A549 NSCLC
COLO 205 colon = system: COLO 205 colon
SR leukemia = system: SR leukemia
OVCAR-3 ovarian = system: OVCAR-3 ovarian
SF-268 CNS = system: SF-268 CNS
LOX IMVI melanoma = system: LOX IMVI melanoma
BT-549 breast = system: BT-549 breast
MDA-MB-231 breast = system: MDA-MB-231 breast
HOP-92 NSCLC = system: HOP-92 NSCLC
TK-10 renal = system: TK-10 renal
UACC-257 melanoma = system: UACC-257 melanoma
M14 melanoma = system: M14 melanoma
OVCAR-4 ovarian = system: OVCAR-4 ovarian
HCT-15 colon = system: HCT-15 colon
SK-MEL-28 melanoma = system: SK-MEL-28 melanoma
SK-MEL-2 melanoma = system: SK-MEL-2 melanoma
HS 578T breast = system: HS 578T breast
RPMI-8226 leukemia = system: RPMI-8226 leukemia
ACHN renal = system: ACHN renal

N#Cc1nc2c(S(=O)(=O)c3ccccc3)c(N)n(Cc3ccc(Cl)cc3)c2nc1C#N
GI50 (SK-OV-3 ovarian): 9.9 µM
TGI (SK-OV-3 ovarian): 29.3 µM
GI50 (UACC-62 melanoma): 7.51 µM
TGI (UACC-62 melanoma): 18.1 µM
GI50 (786-0 renal): 7.08 µM
TGI (786-0 renal): 15.6 µM
GI50 (OVCAR-8 ovarian): 8.51 µM
TGI (OVCAR-8 ovarian): 47.6 µM
GI50 (MCF7 breast): 7.38 µM
TGI (MCF7 breast): > 50 µM
GI50 (K-562 leukemia): > 50 µM
TGI (K-562 leukemia): > 50 µM
GI50 (T-47D breast): 15.5 µM
TGI (T-47D breast): 46.4 µM
GI50 (DU-145 prostate): 15 µM
TGI (DU-145 prostate): > 50 µM
GI50 (HCT-116 colon): 17.9 µM
TGI (HCT-116 colon): > 50 µM
GI50 (NCI-H460 lung): 10.9 µM
TGI (NCI-H460 lung): > 50 µM
GI50 (SK-MEL-5 melanoma): 11.5 µM
TGI (SK-MEL-5 melanoma): > 50 µM
GI50 (KM12 colon): 17.1 µM
TGI (KM12 colon): > 50 µM
GI50 (MDA-MB-435): 19.4 µM
TGI (MDA-MB-435): > 50 µM
GI50 (HCC-2998 colon): 3.6 µM
TGI (HCC-2998 colon): 10.8 µM
GI50 (OVCAR-5 ovarian): 13 µM
TGI (OVCAR-5 ovarian): > 50 µM
GI50 (SW-620 colon): 17 µM
TGI (SW-620 colon): > 50 µM
GI50 (NCI-H23 lung): 6.46 µM
TGI (NCI-H23 lung): 38.6 µM
GI50 (NCI/ADR-RES ovarian): 0.424 µM
TGI (NCI/ADR-RES ovarian): 10.3 µM
GI50 (U251 CNS): 8.09 µM
TGI (U251 CNS): 18.3 µM
GI50 (CAKI-1 renal): 26.7 µM
TGI (CAKI-1 renal): > 50 µM
GI50 (SF-539 CNS): 19.4 µM
TGI (SF-539 CNS): > 50 µM
GI50 (SF-295 CNS): 14.7 µM
TGI (SF-295 CNS): > 50 µM
GI50 (PC-3 prostate): 18.3 µM
TGI (PC-3 prostate): > 50 µM
GI50 (SN12C renal): 5.14 µM
TGI (SN12C renal): 17.6 µM
GI50 (EKVX NSCLC): 19.1 µM
TGI (EKVX NSCLC): > 50 µM
GI50 (SNB-19 CNS): 13.8 µM
TGI (SNB-19 CNS): 41 µM
GI50 (HL-60(TB) leukemia): 47.3 µM
TGI (HL-60(TB) leukemia): > 50 µM
GI50 (RXF 393 renal): 2.45 µM
TGI (RXF 393 renal): 13.9 µM
GI50 (NCI-H522 lung): 7.18 µM
TGI (NCI-H522 lung): > 50 µM
GI50 (HOP-62 NSCLC): > 50 µM
TGI (HOP-62 NSCLC): > 50 µM
GI50 (IGROV1 ovarian): 9.65 µM
TGI (IGROV1 ovarian): 42.3 µM
GI50 (A549 NSCLC): 12.1 µM
TGI (A549 NSCLC): 41.3 µM
GI50 (COLO 205 colon): 17.8 µM
TGI (COLO 205 colon): > 50 µM
GI50 (SR leukemia): 9.72 µM
TGI (SR leukemia): > 50 µM
GI50 (OVCAR-3 ovarian): 12 µM
TGI (OVCAR-3 ovarian): > 50 µM
GI50 (SF-268 CNS): 9.14 µM
TGI (SF-268 CNS): 37.6 µM
GI50 (LOX IMVI melanoma): 0.932 µM
TGI (LOX IMVI melanoma): 4.17 µM
GI50 (BT-549 breast): 10.8 µM
TGI (BT-549 breast): 41.7 µM
GI50 (MDA-MB-231 breast): 5.08 µM
TGI (MDA-MB-231 breast): 14.9 µM
GI50 (HOP-92 NSCLC): 12.3 µM
TGI (HOP-92 NSCLC): 46.2 µM
GI50 (TK-10 renal): 12.2 µM
TGI (TK-10 renal): 26.5 µM
GI50 (UACC-257 melanoma): 33.1 µM
TGI (UACC-257 melanoma): > 50 µM
GI50 (M14 melanoma): 20.9 µM
TGI (M14 melanoma): > 50 µM
GI50 (OVCAR-4 ovarian): 17.8 µM
TGI (OVCAR-4 ovarian): > 50 µM
GI50 (HCT-15 colon): 24.2 µM
TGI (HCT-15 colon): > 50 µM
GI50 (SK-MEL-28 melanoma): 15.3 µM
TGI (SK-MEL-28 melanoma): > 50 µM
GI50 (SK-MEL-2 melanoma): 32.6 µM
TGI (SK-MEL-2 melanoma): > 50 µM
GI50 (HS 578T breast): 7.08 µM
TGI (HS 578T breast): 23.4 µM
GI50 (RPMI-8226 leukemia): 14.1 µM
TGI (RPMI-8226 leukemia): > 50 µM
GI50 (ACHN renal): 4.23 µM
TGI (ACHN renal): 13 µM
